The source of these data is patent publication US9067911B2, “Piperidine derivatives” (Hoffmann-La Roche Inc., priority 2009, dated 2015).

Each structure is given as a SMILES string. Where a name gives a salt, the structure may show the parent alone.

The target in this test is T1, mGlyT-1b (Mus musculus, UniProt P28571).
T1 construct: host or cells: Flp-in-CHO
T1 sequence (P28571 1-651 isoform P28571-2): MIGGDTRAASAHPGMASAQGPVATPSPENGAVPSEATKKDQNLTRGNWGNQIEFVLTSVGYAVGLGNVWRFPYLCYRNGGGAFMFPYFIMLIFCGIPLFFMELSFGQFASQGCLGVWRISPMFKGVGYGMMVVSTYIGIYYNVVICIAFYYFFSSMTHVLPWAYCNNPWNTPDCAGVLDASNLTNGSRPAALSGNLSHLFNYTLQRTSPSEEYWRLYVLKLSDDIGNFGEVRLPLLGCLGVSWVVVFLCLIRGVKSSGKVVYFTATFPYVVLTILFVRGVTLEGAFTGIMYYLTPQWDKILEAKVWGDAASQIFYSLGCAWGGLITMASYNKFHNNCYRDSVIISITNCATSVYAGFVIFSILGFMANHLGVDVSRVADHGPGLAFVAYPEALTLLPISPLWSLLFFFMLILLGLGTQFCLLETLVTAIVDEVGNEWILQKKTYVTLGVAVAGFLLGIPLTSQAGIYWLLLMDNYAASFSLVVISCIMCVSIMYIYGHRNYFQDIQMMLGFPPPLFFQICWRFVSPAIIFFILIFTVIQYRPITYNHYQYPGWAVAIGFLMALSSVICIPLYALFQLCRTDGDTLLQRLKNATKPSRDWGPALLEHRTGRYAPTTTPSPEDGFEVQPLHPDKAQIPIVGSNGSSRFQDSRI
The test can be described thus: Glycine uptake inhibition assay (mGlyT-1b). In kind it is cell-based. The following applies: [3H]-glycine uptake, Flp-in-CHO cells stably transfected with mGlyT1b cDNA, 20 min preincubation at 22° C. The protocol:
Nutrient mixture F-12 (Gibco Life-technologies), fetal bovine serum (FBS) 5%, (Gibco life technologies), Penicillin/Streptomycin 1% (Gibco life technologies), Hygromycin 0.6 mg/ml (Gibco life technologies), Glutamine 1 mM Gibco life technologies)
150 mM NaCl, 10 mM Hepes-Tris, pH 7.4, 1 mM CaCl2, 2.5 mM KCl, 2.5 mM MgSO4, 10 mM (+) D-glucose.
Flp-in™-CHO (Invitrogen Cat n° R758-07) cells stably transfected with mGlyT1b cDNA.
Glycine Uptake Inhibition Assay (mGlyT-1b)
On day 1 mammalian cells, (Flp-in™-CHO), transfected with mGlyT-1b cDNA, were plated at the density of 40,000 cells/well in complete F-12 medium, without hygromycin in 96-well culture plates. On day 2, the medium was aspirated and the cells were washed twice with uptake buffer (UB). The cells were then incubated for 20 min at 22° C. with either (i) no potential competitor, (ii) 10 mM non-radioactive glycine, (iii) a concentration of a potential inhibitor. A range of concentrations of the potential inhibitor was used to generate data for calculating the concentration of inhibitor resulting in 50% of the effect (e.g. IC50, the concentration of the competitor inhibiting glycine uptake of 50%). A solution was then immediately added containing [^3H]-glycine 60 nM (11-16 Ci/mmol) and 25 μM non-radioactive glycine. The plates were incubated with gentle shaking and the reaction was stopped by aspiration of the mixture and washing (three times) with ice-cold UB. The cells were lysed with scintillation liquid, shaken 3 hours and the radioactivity in the cells was counted using a scintillation counter.
For orientation: IC50 means the concentration needed to halve the response being measured. A high value points to weaker potency in that assay. Regarding `COc1cc(C(F)(F)F)cc(SC)c1C(=O)N[C@@]1(c2ccccc2)C[C@H](O)CN(C)C1` (racemic) [Example 107, N-((3R,5S) or (3S,5R)-5-Hydroxy-1-methyl-3-phenyl-piperidin-3-yl)-2-methoxy-6-methylsulfanyl-4-trifluoromethyl-benzamide hydrochloride], the IC50 turned out to be 31.2 nM.

Regarding `COc1cc(C(F)(F)F)cc(SC)c1C(=O)N[C@]1(c2ccccc2)C[C@@H](C)CN(C)C1` (racemic) [Example 121, N-((3S,5R) or (3R,5S)-1,5-Dimethyl-3-phenyl-piperidin-3-yl)-2-methoxy-6-methylsulfanyl-4-trifluoromethyl-benzamide], the IC50 worked out at 16.5 nM.

In turn, `CCc1cc(C(F)(F)F)ccc1C(=O)N[C@@]1(c2ccccc2)C[C@H](C)CN(C)C1` (racemic) [Example 124, N-((3R,5S) or (3S,5R)-1,5-Dimethyl-3-phenyl-piperidin-3-yl)-2-ethyl-4-trifluoromethyl-benzamide] yielded an IC50 of 12.7 nM.

As for `CCc1cc(C(F)(F)F)ccc1C(=O)N[C@@]1(c2ccccc2)C[C@H](OC)CN(C)C1` (racemic) [Example 125, 2-Ethyl-N-((3R,5S) or (3S,5R)-5-methoxy-1-methyl-3-phenyl-piperidin-3-yl)-4-trifluoromethyl-benzamide], 176 nM corresponded to half-maximal inhibition (IC50).

`CO[C@@H]1CN(C)C[C@](NC(=O)c2ccc(C(F)(F)F)cc2C2CC2)(c2ccccc2)C1` (racemic) [Example 126, 2-Cyclopropyl-N-((3R,5S) or (3S,5R)-5-methoxy-1-methyl-3-phenyl-piperidin-3-yl)-4-trifluoromethyl-benzamide] had an IC50 of 31.2 nM.

As to `COc1cc(C(F)(F)F)cc(OC)c1C(=O)N[C@@]1(c2ccccc2)CCCN(C)C1` (racemic) [Example 128, 2,6-Dimethoxy-N-(R or (S)-1-methyl-3-phenyl-piperidin-3-yl)-4-trifluoromethyl-benzamide], the 50% inhibitory concentration (IC50) turned out to be 126 nM.

With `Cl.[2H]C([2H])([2H])N1CCC[C@@](NC(=O)c2c(OC)cc(C(F)(F)F)cc2SC)(c2ccccc2)C1` (single isomer, unassigned) [Example 63, [2H-methyl]-2-Methoxy-N—(R) or (S)-1-methyl-3-phenyl-piperidin-3-yl)-6-methylsulfanyl-4-trifluoromethyl-benzamide hydrochloride], 10 nM corresponded to half-maximal inhibition (IC50).

`COc1cc(C(F)(F)F)cc(SC)c1C(=O)NC1(c2ccccc2F)CCCN(C)C1` (single isomer, unassigned) [Example 111, N-[(R or S)-3-(2-Fluoro-phenyl)-1-methyl-piperidin-3-yl]-2-methoxy-6-methylsulfanyl-4-trifluoromethyl-benzamide] came in with an IC50 of 57.3 nM.

`COc1cc(C(F)(F)F)cc(SC)c1C(=O)NC1(c2cc(F)ccc2F)CCCN(C)C1` (single isomer, unassigned) [Example 113, N-[(R or S)-3-(2,5-Difluoro-phenyl)-1-methyl-piperidin-3-yl]-2-methoxy-6-methylsulfanyl-4-trifluoromethyl-benzamide] had an IC50 of 56.4 nM.

As to `CCc1cc(C(F)(F)F)ccc1C(=O)NC1(c2ccccc2)CCCN(C)C1` (single isomer, unassigned) [Example 115, 2-Ethyl-N-((R or S)-1-methyl-3-phenyl-piperidin-3-yl)-4-trifluoromethyl-benzamide hydrochloride], the IC50 was 25.9 nM.

`COc1cc(C(F)(F)F)cc(SC)c1C(=O)NC1(c2ccccc2)CN(C)CC(C)(C)C1` (single isomer, unassigned) [Example 116, 2-Methoxy-6-methylsulfanyl-4-trifluoromethyl-N-((S or R)-1,5,5-trimethyl-3-phenyl-piperidin-3-yl)-benzamide] showed an IC50 of 35.8 nM.

The compound `COc1cc(C(F)(F)F)cc(SC)c1C(=O)N[C@]1(c2ccccc2)CC[C@H](C)N(C)C1` (single isomer, unassigned) [Example 117, N-((3S,6S) or (3R,6R)-1,6-Dimethyl-3-phenyl-piperidin-3-yl)-2-methoxy-6-methylsulfanyl-4-trifluoromethyl-benzamide] displayed an IC50 of 32.4 nM.

Turning to `COc1cc(C(F)(F)F)cc(SC)c1C(=O)N[C@@]1(c2ccccc2)CC[C@@H](C)N(C)C1` (single isomer, unassigned) [Example 119, N-((3R,6R) or (3S,6S)-1,6-Dimethyl-3-phenyl-piperidin-3-yl)-2-methoxy-6-methylsulfanyl-4-trifluoromethyl-benzamide], the IC50 was determined as 13.9 nM.

The compound `COc1cc(C(F)(F)F)cc(SC)c1C(=O)N[C@@]1(c2ccccc2)CC[C@H](C)N(C)C1` (single isomer, unassigned) [Example 120, N-((3R,6S) or (3S,6R)-1,6-Dimethyl-3-phenyl-piperidin-3-yl)-2-methoxy-6-methylsulfanyl-4-trifluoromethyl-benzamide] returned an IC50 of 12.7 nM.

On to `COc1cc(C(F)(F)F)cc(SC)c1C(=O)N[C@]1(c2ccccc2)CCCN(C)C1` (stereo in doubt) [Example 37, 2-Methoxy-N-((S)-1-methyl-3-phenyl-piperidin-3-yl)-6-methylsulfanyl-4-trifluoromethyl-benzamide hydrochloride], for which the midpoint of inhibition, the IC50, lay at 182 nM.

Turning to `COc1cc(C(F)(F)F)cc(SC)c1C(=O)N[C@@]1(c2ccccc2)CCCN(C)C1` (stereo in doubt) [Example 38, 2-Methoxy-N-((R)-1-methyl-3-phenyl-piperidin-3-yl)-6-methylsulfanyl-4-trifluoromethyl-benzamide hydrochloride], the IC50 turned out to be 10.1 nM.

Compound `CN1CCC[C@](NC(=O)c2ccc(C(F)(F)F)cc2C2CC2)(c2ccccc2)C1` (stereo in doubt) [Example 56, 2-Cyclopropyl-N-((S)-1-methyl-3-phenyl-piperidin-3-yl)-4-trifluoromethyl-benzamide hydrochloride] came in with an IC50 of 162 nM.

In turn, `CN1CCC[C@@](NC(=O)c2ccc(C(F)(F)F)cc2C2CC2)(c2ccccc2)C1` (stereo in doubt) [Example 57, 2-Cyclopropyl-N-((R)-1-methyl-3-phenyl-piperidin-3-yl)-4-trifluoromethyl-benzamide hydrochloride] had an IC50 of 22.7 nM.

Turning to `COc1cc(C(F)(F)F)cc(SC)c1C(=O)N[C@@]1(c2ccccc2)C[C@H](OC)CN(C)C1` (stereo in doubt) [Example 75, 2-Methoxy-N-((3RS,5SR)-5-methoxy-1-methyl-3-phenyl-piperidin-3-yl)-6-methylsulfanyl-4-trifluoromethyl-benzamide], the IC50 is 53.8 nM.

As to `COc1cc(C(F)(F)F)cc(SC)c1C(=O)N[C@@]1(c2ccccc2)C[C@H](OC)CN(C)C1` (stereo in doubt) [Example 108, 2-Methoxy-N-((3R,5S) or (3S,5R)-5-methoxy-1-methyl-3-phenyl-piperidin-3-yl)-6-methylsulfanyl-4-trifluoromethyl-benzamide], half-maximal inhibition (IC50) was put at 40.9 nM.

`COc1cc(C(F)(F)F)cc(SC)c1C(=O)N[C@]1(c2ccccc2)C[C@@H](OC)CN(C)C1` (stereo in doubt) [Example 109, 2-Methoxy-N-((3S,5R) or (3R,5S)-5-methoxy-1-methyl-3-phenyl-piperidin-3-yl)-6-methylsulfanyl-4-trifluoromethyl-benzamide]: 151 nM corresponded to half-maximal inhibition (IC50).
